The source made the active and inactive calls. The calls are words filed in the database; no cut-off is given here.
Columns and labels:
[1] = molecular target: T1, 5-hydroxytryptamine receptor 1A (Rattus norvegicus, UniProt P19327); assay: In vitro binding affinity at 5-HT1A receptors assayed by displacement of [3H]8-OH-DPAT from 5-hydroxytryptamine 1A receptor in rat hippocampal membranes; format: cell membranes, Hippocampus, Membrane
T1 sequence (P19327 whole entry): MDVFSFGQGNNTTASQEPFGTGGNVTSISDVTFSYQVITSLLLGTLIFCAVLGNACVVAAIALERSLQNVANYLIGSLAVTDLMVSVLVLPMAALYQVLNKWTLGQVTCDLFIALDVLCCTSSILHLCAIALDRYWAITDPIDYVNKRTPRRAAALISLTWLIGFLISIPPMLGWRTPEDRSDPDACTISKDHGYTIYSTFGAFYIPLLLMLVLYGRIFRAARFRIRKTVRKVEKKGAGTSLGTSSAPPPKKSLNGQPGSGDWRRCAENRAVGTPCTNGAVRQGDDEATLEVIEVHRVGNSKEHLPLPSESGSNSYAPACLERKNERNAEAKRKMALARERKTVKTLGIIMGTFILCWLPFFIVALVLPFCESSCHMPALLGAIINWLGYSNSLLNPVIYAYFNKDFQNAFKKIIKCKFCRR

[2] = molecular target: T2, 5-hydroxytryptamine receptor 1A (Homo sapiens) (UniProt P08908); assay: Percent inhibition of vasoactive intestinal polypeptide-induced (VIP-induced) cAMP formation in GH4ZD10 cells expressing 5-HT1A receptor at 50 uM relative to 5-HT; format: functional, cell-based
T2 sequence (whole entry): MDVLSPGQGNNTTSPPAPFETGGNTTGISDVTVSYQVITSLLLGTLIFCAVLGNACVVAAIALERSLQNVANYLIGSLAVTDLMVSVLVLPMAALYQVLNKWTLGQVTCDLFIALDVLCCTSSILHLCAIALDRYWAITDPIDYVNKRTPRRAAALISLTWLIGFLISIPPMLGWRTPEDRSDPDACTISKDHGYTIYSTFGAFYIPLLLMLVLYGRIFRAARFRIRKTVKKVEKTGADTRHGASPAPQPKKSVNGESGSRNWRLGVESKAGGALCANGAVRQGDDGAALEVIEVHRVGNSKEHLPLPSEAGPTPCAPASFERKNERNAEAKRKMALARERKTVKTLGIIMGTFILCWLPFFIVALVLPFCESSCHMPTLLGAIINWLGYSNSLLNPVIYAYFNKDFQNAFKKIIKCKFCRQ

D(1A) dopamine receptor = D(1A) dopamine receptor (Rattus norvegicus, UniProt P18901); assay: In vitro binding affinity at D1 receptor by measuring its ability to displace [3H]SCH-23390 from Dopamine receptor D1 in rat striatum
Sequence of D(1A) dopamine receptor (P18901 whole entry): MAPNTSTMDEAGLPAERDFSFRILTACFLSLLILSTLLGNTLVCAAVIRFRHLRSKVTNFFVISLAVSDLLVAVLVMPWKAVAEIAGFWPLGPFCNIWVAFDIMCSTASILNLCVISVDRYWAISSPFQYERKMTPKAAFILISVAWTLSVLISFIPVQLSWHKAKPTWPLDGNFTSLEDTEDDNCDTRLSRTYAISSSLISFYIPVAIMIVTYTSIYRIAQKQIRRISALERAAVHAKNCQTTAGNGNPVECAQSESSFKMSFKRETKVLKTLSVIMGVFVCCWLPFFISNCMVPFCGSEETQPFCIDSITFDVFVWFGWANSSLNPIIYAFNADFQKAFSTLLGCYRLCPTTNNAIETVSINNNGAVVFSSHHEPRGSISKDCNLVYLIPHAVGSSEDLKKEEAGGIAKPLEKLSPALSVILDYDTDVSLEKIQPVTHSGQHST

[3] = molecular target: 5-hydroxytryptamine receptor 2A (Rattus norvegicus, UniProt P14842); assay: In vitro binding affinity at 5-hydroxytryptamine 2A receptor by displacement of [3H]ketanserin from rat cortex
Sequence of 5-hydroxytryptamine receptor 2A (P14842 whole entry): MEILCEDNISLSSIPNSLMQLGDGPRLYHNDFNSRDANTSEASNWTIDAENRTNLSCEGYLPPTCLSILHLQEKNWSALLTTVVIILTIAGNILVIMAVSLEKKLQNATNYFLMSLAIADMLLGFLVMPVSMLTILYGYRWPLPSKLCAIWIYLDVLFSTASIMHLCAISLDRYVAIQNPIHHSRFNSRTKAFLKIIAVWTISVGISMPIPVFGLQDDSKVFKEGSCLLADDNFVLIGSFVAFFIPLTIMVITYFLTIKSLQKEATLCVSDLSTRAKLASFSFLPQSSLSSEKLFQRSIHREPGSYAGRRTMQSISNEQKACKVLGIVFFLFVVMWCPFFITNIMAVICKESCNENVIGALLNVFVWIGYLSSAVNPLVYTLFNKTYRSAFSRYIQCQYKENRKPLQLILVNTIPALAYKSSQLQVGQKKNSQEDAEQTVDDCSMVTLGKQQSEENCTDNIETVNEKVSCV

D(2) dopamine receptor [4] = molecular target: T3, D(2) dopamine receptor (Homo sapiens, UniProt P14416); assay: In vitro binding affinity at human cloned Dopamine receptor D2A measured by ability to displace [3H]raclopride from D2A receptor expressed in mouse fibroblast (LtK-) cells; format: cell-based
T3 sequence (P14416 whole entry): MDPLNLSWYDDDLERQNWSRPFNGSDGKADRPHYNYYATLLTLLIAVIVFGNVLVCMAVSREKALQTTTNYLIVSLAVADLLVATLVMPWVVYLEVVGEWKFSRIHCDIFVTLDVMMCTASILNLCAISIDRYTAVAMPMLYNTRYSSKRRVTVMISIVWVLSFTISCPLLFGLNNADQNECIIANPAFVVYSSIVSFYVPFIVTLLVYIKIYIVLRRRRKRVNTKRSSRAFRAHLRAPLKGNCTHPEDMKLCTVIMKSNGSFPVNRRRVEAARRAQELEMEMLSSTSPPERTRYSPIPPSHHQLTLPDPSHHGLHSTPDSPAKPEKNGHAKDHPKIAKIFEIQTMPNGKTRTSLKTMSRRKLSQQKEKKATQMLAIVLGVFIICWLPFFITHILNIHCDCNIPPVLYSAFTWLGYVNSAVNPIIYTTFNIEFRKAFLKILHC

[5] = molecular target: T4, 5-hydroxytryptamine receptor 1A (Rattus norvegicus) (UniProt P19327); assay: Percent of maximum response by 5-HT when tested for inhibition of vasoactive intestinal polypeptide-induced (VIP-induced) cAMP formation assessed in GH4ZD10 cells at 50 uM concentration; No effect; format: functional, cell-based
T4 sequence (whole entry): T1 sequence (P19327 whole entry)

[6] = molecular target: T4, 5-hydroxytryptamine receptor 1A (Rattus norvegicus); assay: Percent of maximum response by 5-HT when tested for inhibition of vasoactive intestinal polypeptide-induced (VIP-induced) cAMP formation assessed in GH4ZD10 cells at 10 uM concentration; format: functional, cell-based
[7] = molecular target: T1, 5-hydroxytryptamine receptor 1A; assay: In vitro binding affinity at 5-HT1A receptor by measuring its ability to displace [3H]-8-OH-DPAT from 5-hydroxytryptamine 1A receptor in rat hippocampal membranes+cortex; format: cell membranes, Hippocampus
D(2) dopamine receptor [8] = molecular target: T3, D(2) dopamine receptor; assay: In vitro binding affinity at human cloned Dopamine receptor D2A by measuring its ability to displace [3H]raclopride from D2A receptor expressed in mouse fibroblast (LtK-) cells; format: cell-based
[9] = molecular target: T1, 5-hydroxytryptamine receptor 1A; assay: In vitro binding affinity at 5-HT1A receptor by measuring its ability to displace [3H]8-OH-DPAT from 5-hydroxytryptamine 1A receptor in rat hippocampal membranes + cortex; format: cell membranes, Hippocampus

CNC(=O)c1cccc2c1C[C@@H](NCCCCN1C(=O)CC3(CCCC3)CC1=O)CO2
Ki [1]: 525 nM
Efficacy [2]: 61%

CCCN(CCC)[C@H]1COc2cccc(C(=O)NC(C)C)c2C1
Ki (D(1A) dopamine receptor): > 1000 nM
Ki [3]: > 1000 nM
Ki [1]: 14 nM
Efficacy [2]: 58%
Ki (D(2) dopamine receptor [4]): > 1000 nM

CCCN(CCCCN1C(=O)CC2(CCCC2)CC1=O)[C@@H]1COc2cccc(C(=O)NC)c2C1
Ki [1]: < 0.3 nM
Efficacy [2]: 103%

CCCN(CCCCN1C(=O)CC2(CCCC2)CC1=O)[C@H]1COc2cccc(C(=O)NC)c2C1
Ki [1]: 0.34 nM
Efficacy [2]: 62%

CCCN(C(C)C)[C@@H]1COc2cccc(C(=O)NC(C)C)c2C1
Ki (D(1A) dopamine receptor): > 50000 nM
Efficacy [5]: inactive
Ki [3]: > 10000 nM
Ki (D(2) dopamine receptor [4]): > 50000 nM

CCCN(CC(C)(C)C)[C@@H]1COc2cccc(C(=O)NC)c2C1
Ki [1]: 3.96 nM
Efficacy [6]: 91%

CCCN(C(C)C)[C@H]1COc2cccc(C(=O)OC)c2C1
Ki [1]: 0.32 nM
Efficacy [2]: 128%

CCCN(C(C)C)[C@H]1COc2cccc(OC)c2C1
Ki [7]: 3.1 nM

CCCN[C@H]1COc2cccc(C(N)=O)c2C1
Ki (D(1A) dopamine receptor): > 1000 nM
Ki [3]: > 1000 nM
Ki [1]: 98.4 nM
Efficacy [2]: 42%
Ki (D(2) dopamine receptor [4]): > 1000 nM

CCCN(C(C)C)[C@@H]1COc2cccc(C(C)=O)c2C1
Ki [1]: 11.9 nM
Efficacy [2]: 128%
Ki (D(2) dopamine receptor [8]): 30100 nM

CNC(=O)c1cccc2c1C[C@H](N(CCCCN1C(=O)CC3(CCCC3)CC1=O)CC(C)C)CO2
Ki [1]: 2.48 nM
Efficacy [2]: 123%

CCCN(C(C)C)[C@H]1COc2cccc(C(N)=O)c2C1
Ki (D(1A) dopamine receptor): > 1000 nM
Ki [3]: > 1000 nM
Ki [1]: 0.48 nM
Efficacy [2]: 75%
Ki (D(2) dopamine receptor [4]): > 50000 nM

NC(=O)c1cccc2c1C[C@@H](N)CO2
Ki (D(1A) dopamine receptor): > 1000 nM
Efficacy [5]: inactive
Ki [3]: > 1000 nM
Ki (D(2) dopamine receptor [4]): > 1000 nM

CCCN(C(C)C)[C@H]1COc2cccc(C(=O)OC(C)C)c2C1
Ki [7]: 18 nM

CCCN(C(C)C)[C@H]1COc2cccc(C(C)=O)c2C1
Ki [1]: 0.3 nM

CCCN(C1CCCC1)[C@H]1COc2cccc(C(=O)NC)c2C1
Ki [1]: < 0.3 nM
Efficacy [2]: 70%

CCCN(C1CCCC1)[C@@H]1COc2cccc(C(=O)NC)c2C1
Ki [1]: 18.5 nM
Efficacy [2]: 110%

CCN(C(C)C)[C@H]1COc2cccc(C(=O)NC(C)C)c2C1
Ki (D(1A) dopamine receptor): > 1000 nM
Ki [3]: > 1000 nM
Ki [1]: 200 nM
Efficacy [6]: 34%
Ki (D(2) dopamine receptor [4]): > 1000 nM

CCCN(CCC)[C@@H]1COc2cccc(C(=O)NC(C)C)c2C1
Ki [9]: 64 nM
Efficacy [2]: 95%

CCCN(C1CCCC1)[C@H]1COc2cccc(C(N)=O)c2C1
Ki (D(1A) dopamine receptor): > 4000 nM
Ki [3]: > 1000 nM
Ki [1]: < 0.3 nM
Efficacy [6]: 80%
Ki (D(2) dopamine receptor [4]): > 1000 nM

CC(C)N[C@H]1COc2cccc(C(N)=O)c2C1
Ki (D(1A) dopamine receptor): > 1000 nM
Ki [3]: > 1000 nM
Ki [1]: 397 nM
Efficacy [2]: 20%
Ki (D(2) dopamine receptor [4]): > 1000 nM

CCCN(C1CCCC1)[C@H]1COc2cccc(C(=O)OC)c2C1
Ki [1]: 0.41 nM

CCCN(CC(C)(C)C)[C@H]1COc2cccc(C(=O)NC)c2C1
Ki [1]: 31 nM
Efficacy [2]: 88%

CCCN(CC(C)C)[C@H]1COc2cccc(C(=O)NC)c2C1
Ki [3]: > 50000 nM
Ki [1]: 2.37 nM
Efficacy [2]: 96%

CCCN(C(C)C)[C@@H]1COc2cccc(OC)c2C1
Ki [7]: 134 nM

CCCN(C(C)C)[C@H]1COc2cccc(C(=O)NC(C)C)c2C1 [EBALZOTAN]
Ki (D(1A) dopamine receptor): > 50000 nM
Ki [3]: > 10000 nM
Ki [1]: 7.77 nM
Efficacy [2]: 74%
Ki (D(2) dopamine receptor [4]): > 50000 nM

CC(C)NC(=O)c1cccc2c1C[C@@H](NC(C)C)CO2
Ki (D(1A) dopamine receptor): > 1000 nM
Efficacy [5]: inactive
Ki [3]: > 10000 nM
Ki [1]: 4300 nM
Ki (D(2) dopamine receptor [4]): > 1000 nM

CNC(=O)c1cccc2c1C[C@H](NCCCCN1C(=O)CC3(CCCC3)CC1=O)CO2
Ki [1]: 24.3 nM
Efficacy [2]: 82%

Source: ChEMBL document CHEMBL1133455, “Synthesis of novel 5-substituted 3-amino-3,4-dihydro-2H-1-benzopyran derivatives and their interactions with the 5-HT1A receptor” (J Med Chem, 2000)
